Test results from patent US20220144823A1, “PYRAZOLOPYRIDINE DERIVATIVES AS INHIBITORS OF PASK” (Galapagos NV, priority 2019, published 2022).

Target: T1, human PASK (Homo sapiens, UniProt Q96RG2)
T1 construct: purchased ThermoFisher Scientific PR7013A
Assay: 33P radioactive kinase assay
Format: biochemical
Conditions: 33P radioactive PASK kinase assay, 10 μM ATP, ZIPtide 1 μM
How it was run: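 Human PASK phosphorylation of ZIPtide peptide was measured by incorporation from [^33P]-ATP plus unlabelled ATP, with a 10-point, 1/5 dilution series from 0.2 or 2 mM DMSO stocks and 1% DMSO final. Reactions were stopped with phosphoric acid, filter-harvested, washed and scintillation-counted. Percentage inhibition gave dose–response curves and averaged IC50s.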

T1 sequence (Q96RG2 whole entry): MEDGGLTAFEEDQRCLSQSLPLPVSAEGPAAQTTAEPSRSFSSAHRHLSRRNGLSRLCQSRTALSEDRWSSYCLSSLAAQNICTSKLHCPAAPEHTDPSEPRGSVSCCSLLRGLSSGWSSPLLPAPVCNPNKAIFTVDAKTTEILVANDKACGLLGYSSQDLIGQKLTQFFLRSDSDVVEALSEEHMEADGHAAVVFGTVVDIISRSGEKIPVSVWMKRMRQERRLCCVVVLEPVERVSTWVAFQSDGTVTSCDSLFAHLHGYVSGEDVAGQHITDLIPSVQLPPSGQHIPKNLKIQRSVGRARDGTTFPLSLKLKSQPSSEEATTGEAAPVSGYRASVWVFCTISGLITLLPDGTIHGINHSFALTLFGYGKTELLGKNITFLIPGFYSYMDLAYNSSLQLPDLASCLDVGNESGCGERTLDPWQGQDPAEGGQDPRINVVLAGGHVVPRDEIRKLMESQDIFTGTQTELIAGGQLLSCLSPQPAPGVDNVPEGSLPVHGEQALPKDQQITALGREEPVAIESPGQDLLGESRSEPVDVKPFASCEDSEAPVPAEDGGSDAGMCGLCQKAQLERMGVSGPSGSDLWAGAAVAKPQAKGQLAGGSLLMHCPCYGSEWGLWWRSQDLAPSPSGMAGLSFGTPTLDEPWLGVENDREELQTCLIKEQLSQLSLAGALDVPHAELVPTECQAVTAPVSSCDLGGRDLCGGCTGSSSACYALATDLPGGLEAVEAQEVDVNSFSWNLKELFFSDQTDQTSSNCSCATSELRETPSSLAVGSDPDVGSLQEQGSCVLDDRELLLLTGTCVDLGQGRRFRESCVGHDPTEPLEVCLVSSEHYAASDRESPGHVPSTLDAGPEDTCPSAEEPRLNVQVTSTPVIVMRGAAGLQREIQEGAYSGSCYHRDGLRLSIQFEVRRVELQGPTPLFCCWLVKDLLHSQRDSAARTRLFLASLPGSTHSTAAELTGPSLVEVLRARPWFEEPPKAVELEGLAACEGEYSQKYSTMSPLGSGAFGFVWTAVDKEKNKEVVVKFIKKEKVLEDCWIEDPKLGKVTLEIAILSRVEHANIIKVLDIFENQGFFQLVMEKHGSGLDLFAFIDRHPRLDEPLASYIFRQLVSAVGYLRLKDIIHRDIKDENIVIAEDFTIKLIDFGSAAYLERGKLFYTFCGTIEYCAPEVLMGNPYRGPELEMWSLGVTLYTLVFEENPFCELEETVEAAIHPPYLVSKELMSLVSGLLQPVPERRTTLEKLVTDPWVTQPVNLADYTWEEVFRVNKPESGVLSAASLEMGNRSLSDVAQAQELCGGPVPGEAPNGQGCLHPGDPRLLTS

Cc1nn(C(C)C)c(C)c1-c1cnn2ccc(-c3cc(C(=O)O)co3)cc12 [Cpd 18, 5-[3-(1-isopropyl-3,5-dimethyl-pyrazol-4-yl)pyrazolo[1,5-a]pyridin-5-yl]furan-3-carboxylic acid] gave an IC50 of 0.01 to 10 nM.
